Data as given in patent US10130618B2, “Pharmaceutical combinations of dabigatran and proton pump inhibitors” (SANOVEL ILAC SANAYI VE TICARET ANONIM SIRKETI, priority 2014, dated 2018).

Assays:
[1] = DSC analysis of 1:1 API mixtures (compatibility with Dabigatran etexilate); type: physicochemical; details: for DSC peak temperature of the mixture (peak shifting) / Compatibility by DSC: 1:1 mixture with Dabigatran etexilate; for DSC peak temperature of the mixture (peak shifting): 10° C./min, 30° C. to 300° C.; for Compatibility by DSC: characteristic peaks not determined; for Pharmaceutical incompatibility (discussion of DSC): with Dabigatran etexilate
Procedure: (§1) DSC Analysis: DSC scan of about 2 mg using an automatic thermal analyzer system performed accurately weighed of APIs (Dabigatran etexilate, Dabigatran etexilate mesylate, Esomeprazole, Dexlansoprazole) of 1:1 in ratio respectively. DSC scans performed with 10° C. per minute heat flow from 30° C. to 300° C. The peak shifting of active ingredients was determined by DSC analysis.
(§2) Method Log: • 1: Pan Type: Aluminum hermetic • 2: Equilibrate at 30.00° C. • 3: Ramp 10.00 ° C./min to 300.00° C. • 4: End of method
(§3) Results (Thermograms): • FIG. 1. Thermogram of Dabigatran etexilate • FIG. 2. Thermogram of Dabigatran etexilate mesylate • FIG. 3. Thermogram of Esomeprazole • FIG. 4. Thermogram of Dexlansoprazole • FIG. 5. Thermogram of Dabigatran etexilate: Esomeprazole • FIG. 6. Thermogram of Dabigatran etexilate mesylate: Esomeprazole • FIG. 7. Thermogram of Dabigatran etexilate: Dexlansoprazole • FIG. 8. Thermogram of Dabigatran etexilate mesylate: Dexlansoprazole
(§4) Discussion: The characteristic degradation and melting peaks of active ingredients were not determined. It indicates pharmaceutical incompatibility of esomeprazole and dexlansoprazole with Dabigatran etexilate and Dabigatran etexilate mesylate.

[2] = DSC analysis of 1:1 API mixtures (compatibility with Dabigatran etexilate mesylate); type: physicochemical; details: for DSC peak temperature of the mixture (peak shifting) / Compatibility by DSC: 1:1 mixture with Dabigatran etexilate mesylate; for DSC peak temperature of the mixture (peak shifting): 10° C./min, 30° C. to 300° C.; for Compatibility by DSC: characteristic peaks not determined; for Pharmaceutical incompatibility (discussion of DSC): with Dabigatran etexilate mesylate
Procedure: as §1, §2, §3, §4

Cc1c(OCC(F)(F)F)ccnc1C[S@@+]([O-])c1nc2ccccc2[nH]1 [Dexlansoprazole, (+)-2-[(R)-{[3-methyl-4-(2,2,2-trifluoroethoxy)pyridin-2-yl]methyl}sulfinyl]-1H-benzimidazole]
DSC peak temperature of the mixture (peak shifting) [1]: 87 °C
Compatibility by DSC [1]: incompatible.
Pharmaceutical incompatibility (discussion of DSC) [1]: incompatibility
DSC peak temperature of the mixture (peak shifting) [2]: 82 °C
Compatibility by DSC [2]: incompatible.
Pharmaceutical incompatibility (discussion of DSC) [2]: incompatibility

COc1ccc2nc([S@@+]([O-])Cc3ncc(C)c(OC)c3C)[nH]c2c1 [Esomeprazole, (S)-5-methoxy-2-[(4-methoxy-3,5-dimethylpyridin-2-yl)methylsulfinyl]-3H-benzoimidazole]
DSC peak temperature of the mixture (peak shifting) [1]: 174 °C
Compatibility by DSC [1]: incompatible.
Pharmaceutical incompatibility (discussion of DSC) [1]: incompatibility
DSC peak temperature of the mixture (peak shifting) [2]: 176 °C
Compatibility by DSC [2]: incompatible.
Pharmaceutical incompatibility (discussion of DSC) [2]: incompatibility
